This note sets out measurements from PMC5727211, “Development of Erasin: a chromone-based STAT3 inhibitor which induces apoptosis in Erlotinib-resistant lung cancer cells” (Scientific Reports, 2017).

The subject of one experiment is parental HCC-827 cells. The experiment in a line: Apoptosis assay (Annexin V/7-AAD flow cytometry), parental HCC-827 cells. It is filed as cell-based, human. The conditions noted are these: 24 h. Here is the method: Afterwards, the cell culture supernatant from each well was collected. […] The supernatants were then returned to each well to neutralize the Accutase solution and the cells were centrifuged at 3000 rpm, at 4 °C for 5 min. The cell pellets were washed twice with cold PBS and centrifuged again. […] Cells were resuspended in 1 x binding buffer and incubated with PE Annexin V and 7-AAD at 4 °C for 30 min. Apoptosis was measured using an LSR II flow cytometer (BD Bioscience). Experiments were carried out in at least triplicate.

In experiment [1] the test system is Erlotinib-resistant HCC-827 cells. The experiment in a line: Apoptosis assay (Annexin V/7-AAD flow cytometry), Erlotinib-resistant HCC-827 cells. The class given is cell-based, human. The conditions noted are these: 24 h. Here is the method: Afterwards, the cell culture supernatant from each well was collected. […] The supernatants were then returned to each well to neutralize the Accutase solution and the cells were centrifuged at 3000 rpm, at 4 °C for 5 min. The cell pellets were washed twice with cold PBS and centrifuged again. […] Cells were resuspended in 1 x binding buffer and incubated with PE Annexin V and 7-AAD at 4 °C for 30 min. Apoptosis was measured using an LSR II flow cytometer (BD Bioscience). Experiments were carried out in at least triplicate. […]
A general note: In flow cytometry, cells or beads pass a laser one at a time.

As to `C#Cc1cccc(Nc2ncnc3cc(OCCOC)c(OCCOC)cc23)c1` [Erlotinib], the apoptosis result in the experiment with parental HCC-827 cells (1 nM) is recorded as “significant increase in apoptosis”; in experiment [1] (10 nM) it was “did not show increased apoptosis”. For the same compound, in the experiment on parental HCC-827 cells (1 µM), the induction of apoptosis entry was “more than tenfold induction of apoptosis”. Moreover, the “increase of the apoptotic rate” value in experiment [1] (1 µM) is “only a twofold increase”.
